The values below are quoted from earlier work in US20140100274A1, “METHODS OF ADMINISTERING COMPOSITIONS COMPRISING DOCOSAPENTAENOIC ACID” (Matinas BioPharma, Inc., priority 2012, published 2014).

For the series the following is noted: in vivo.

For `CC[C@H](C)C(=O)O[C@H]1C[C@H](O)C=C2C=C[C@H](C)[C@H](CC[C@@H](O)C[C@@H](O)CC(=O)O)[C@H]21` [pravastatin], the First-pass metabolism entry was “occurs in all statins except pravastatin”.
